# Measurements published in patent US20090197859A1 (Pfizer Inc., priority 2008, published 2009).
# Key:
# [1] = molecular target: T1, cloned human 5-HT6 receptor (Homo sapiens, UniProt P50406); assay: 5-HT6 Receptor Binding Assay ([3H]-LSD radioligand, SPA); details: read-out: 5HT6 % inh @ 1 uM
# T1 construct: host or cells: HeLa cells, G-418 selection, membrane preparation
# Protocol: 5-HT6 Receptor Binding Assay
# Hela cells containing the cloned human 5-HT6 receptor were acquired from Dr. David R. Sibley's laboratory in National Institute of Health (see Sibley, D. R., J. Neurochemistry, 66, 47-56, 1996). Cells were grown in high glucose Dulbecco's modified Eagle's medium, supplemented with L-glutamine, 0.5% sodium pyruvate, 0.3% penicillin-streptomycin, 0.025% G-418 and 5% Gibco fetal bovine serum and then were harvested, when confluent, in cold phosphate buffered saline.
# Harvested intact cells were washed once in cold phosphate-buffered saline. The cells were pelleted and resuspended in 100 ml of cold 50 mM Tris, 5 mM EDTA and 5 mM EGTA, pH 7.4. Homogenization was with a Vir Tishear generator, 4 cycles for 30 seconds each at setting 50. The homogenized cells were centrifuged at […] for 10 minutes and the supernatant was removed. The pellet was resuspended in 100 ml of the above buffer and rehomogenized for 2 cycles. The rehomogenized cells were then centrifuged at […] for 10 minutes and the supernatant was removed. The combined supernatant (200 ml) was centrifuged at 23,000 RPM (80,000×g) for 1 hour in a Beckman Rotor (42.1 Ti). The membrane pellet was resuspended in […] of assay buffer containing HEPES 20 mM, MgCl2 10 mM, NaCl 150 mM, EDTA 1 mM, pH 7.4 and stored frozen in aliqouts at −70° C.
# The radioligand binding assay used [^3H]-lysergic acid diethylamide (LSD). The assay was carried out in Wallac 96-well sample plates by the addition of 11 μl of the test sample at the appropriate dilution (the assay employed 11 serial concentrations of samples run in duplicate), 11 μl of radioligand, and 178 μl of a washed mixture of WGA-coated SPA beads and membranes in binding buffer. The plates were shaken for about 5 minutes and then incubated at room temperature for 1 hour. The plates were then loaded into counting cassettes and counted in a Wallac MicroBeta Trilux scintillation counter.
# Binding Constant Determination may be obtained by performing serial dilutions, e.g., eleven dilutions, of test compounds into assay plates using the PE/Cetus Pro/Pette pipetter. These dilutions are followed by radioligand and the bead-membrane mixture prepared as described above. After obtaining the specifically bound cpm, the data are fit to a one-site binding model using GraphPad Prism ver. 2.0. Estimated IC50 values are converted to Ki values using the Cheng-Prusoff equation (Cheng, Y. C. et al., Biochem. Pharmacol., 22, 3099-108, 1973).
# T1 sequence (P50406 whole entry): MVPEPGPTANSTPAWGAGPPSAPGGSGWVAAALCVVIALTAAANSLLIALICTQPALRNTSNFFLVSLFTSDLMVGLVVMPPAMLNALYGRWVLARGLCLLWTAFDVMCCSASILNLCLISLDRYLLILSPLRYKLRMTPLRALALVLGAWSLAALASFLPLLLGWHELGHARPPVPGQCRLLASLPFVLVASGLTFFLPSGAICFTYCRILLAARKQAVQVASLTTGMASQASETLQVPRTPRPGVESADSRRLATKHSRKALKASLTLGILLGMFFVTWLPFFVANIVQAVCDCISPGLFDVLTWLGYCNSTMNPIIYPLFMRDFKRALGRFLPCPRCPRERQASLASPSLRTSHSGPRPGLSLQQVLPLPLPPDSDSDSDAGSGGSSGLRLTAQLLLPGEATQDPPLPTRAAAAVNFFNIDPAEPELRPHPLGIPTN
inhibition at 1 µM [1] [%],melting point [°C],SMILES
100,158 to 159,"O=C(c1cccc(N2CCCNCC2)n1)N1CCC[C@H](Oc2ccccc2F)C1 [Example 40, (6-[1,4]Diazepan-1-yl-pyridin-2-yl)-[(S)-3-(2-fluoro-phenoxy)-piperidin-1-yl]-methanone]"
94.7,157.6 to 158.2,"Cc1ccc(O[C@H]2CCCN(C(=O)c3cccc(N4CCCNCC4)n3)C2)cc1 [Example 41, (6-[1,4]Diazepan-1-yl-pyridin-2-yl)-((S)-3-p-tolyloxy-piperidin-1-yl)-methanone]"
99.4,116 to 118,"Cc1cccc(O[C@H]2CCN(C(=O)c3cccc(N4CCCNCC4)n3)C2)c1 [Example 42, (6-[1,4]Diazepan-1-yl-pyridin-2-yl)-((S)-3-m-tolyloxy-pyrrolidin-1-yl)-methanone]"
97.7,90 to 92,"Cc1ccc(O[C@H]2CCN(C(=O)c3cccc(N4CCCNCC4)n3)C2)cc1 [Example 43, (6-[1,4]Diazepan-1-yl-pyridin-2-yl)-((S)-3-p-tolyloxy-pyrrolidin-1-yl)-methanone]"
99.7,184 to 185.6,"Cc1cccc(O[C@H]2CCCN(C(=O)c3cccc(N4CCCNCC4)n3)C2)c1 [Example 44, (6-[1,4]Diazepan-1-yl-pyridin-2-yl)-((S)-3-m-tolyloxy-piperidin-1-yl)-methanone]"
95.4,118 to 119.7,"Cc1ccccc1O[C@H]1CCCN(C(=O)c2cccc(N3CCCNCC3)n2)C1 [Example 45, (6-[1,4]Diazepan-1-yl-pyridin-2-yl)-((S)-3-o-tolyloxy-piperidin-1-yl)-methanone]"
86.1,158 to 160,"Cc1cccc(O[C@@H]2CCCN(C(=O)c3cccc(N4CCCNCC4)n3)C2)c1 [Example 48, (6-[1,4]Diazepan-1-yl-pyridin-2-yl)-((R)-3-m-tolyloxy-piperidin-1-yl)-methanone]"
89.9,102 to 104,"Cc1ccccc1O[C@@H]1CCN(C(=O)c2cccc(N3CCCNCC3)n2)C1 [Example 49, (6-[1,4]Diazepan-1-yl-pyridin-2-yl)-((R)-3-o-tolyloxy-pyrrolidin-1-yl)-methanone]"
89.6,172 to 174,"O=C(c1cccc(N2CCCNCC2)n1)N1CCC[C@@H](Oc2cccc(F)c2)C1 [Example 50, (6-[1,4]Diazepan-1-yl-pyridin-2-yl)-[(R)-3-(3-fluoro-phenoxy)-piperidin-1-yl]-methanone]"
96.3,142 to 142.5,"Cc1cccc([C@H]2CCCCN2C(=O)c2cccc(N3CCN(C)CC3)n2)c1 [Example 52, [6-(4-Methyl-piperazin-1-yl)-pyridin-2-yl]-((R)-2-m-tolyl-piperidin-1-yl)-methanone]"
86.4,140,"Cc1ccc(O[C@@H]2CCCN(C(=O)c3cccc(N4CCCNCC4)n3)C2)cc1 [Example 54, (6-[1,4]Diazepan-1-yl-pyridin-2-yl)-((R)-3-p-tolyloxy-piperidin-1-yl)-methanone]"
94.2,122.7 to 123,"CN1CCN(c2cccc(C(=O)N3CCCC[C@@H]3c3cccc(F)c3)n2)CC1 [Example 55, [(R)-2-(3-Fluoro-phenyl)-piperidin-1-yl]-[6-(4-methyl-piperazin-1-yl)-pyridin-2-yl]-methanone]"
90.7,111.7 to 112.2,"CN1CCN(c2cccc(C(=O)N3CCCC[C@H]3c3ccccc3F)n2)CC1 [Example 56, [(S)-2-(2-Fluoro-phenyl)-piperidin-1-yl]-[6-(4-methyl-piperazin-1-yl)-pyridin-2-yl]-methanone]"
94,111.7 to 112,"CN1CCN(c2cccc(C(=O)N3CCCC[C@@H]3c3ccccc3F)n2)CC1 [Example 57, [(R)-2-(2-Fluoro-phenyl)-piperidin-1-yl]-[6-(4-methyl-piperazin-1-yl)-pyridin-2-yl]-methanone]"
88.9,118 to 119,"CN1CCN(c2cccc(C(=O)N3CCCC(c4ccccc4F)C3)n2)CC1 (stereo not shown) [Example 58, [3-(2-Fluoro-phenyl)-piperidin-1-yl]-[6-(4-methyl-piperazin-1-yl)-pyridin-2-yl]-methanone]"
76.2,108 to 110,"Cc1ccc(O[C@@H]2CCN(C(=O)c3cccc(N4CCCN(C)CC4)n3)C2)cc1 [Example 59, [6-(4-Methyl-[1,4]diazepan-1-yl)-pyridin-2-yl]-((R)-3-p-tolyloxy-pyrrolidin-1-yl)-methanone]"
86.7,142 to 143,"Cc1ccccc1[C@@H](C)N(C)C(=O)c1cccc(N2CCN(C)CC2)n1 [Example 61, 6-(4-Methyl-piperazin-1-yl)-pyridine-2-carboxylic acid methyl-((R)-1-o-tolyl-ethyl)-amide]"
70,188 to 188.7,"Cc1ccccc1[C@H]1CCCCN1C(=O)c1cccc(N2CCN(C)CC2)n1 [Example 62, [6-(4-Methyl-piperazin-1-yl)-pyridin-2-yl]-((R)-2-o-tolyl-piperidin-1-yl)-methanone]"
77.4,136.7 to 137.2,"Cc1ccccc1[C@@H]1CCCCN1C(=O)c1cccc(N2CCN(C)CC2)n1 [Example 63, [6-(4-Methyl-piperazin-1-yl)-pyridin-2-yl]-((S)-2-o-tolyl-piperidin-1-yl)-methanone]"
87.6,80 to 81,"CN1CCN(c2cccc(C(=O)N(C)Cc3ccccc3F)n2)CC1 [Example 64, 6-(4-Methyl-piperazin-1-yl)-pyridine-2-carboxylic acid (2-fluoro-benzyl)-methyl-amide]"
89.6,73 to 74,"CN1CCN(c2cccc(C(=O)N(C)Cc3ccccc3Cl)n2)CC1 [Example 65, 6-(4-Methyl-piperazin-1-yl)-pyridine-2-carboxylic acid (2-chloro-benzyl)-methyl-amide]"
82.1,143.3 to 144,"Cc1ccc([C@H]2CCCCN2C(=O)c2cccc(N3CCN(C)CC3)n2)cc1 [Example 66, [6-(4-Methyl-piperazin-1-yl)-pyridin-2-yl]-((R)-2-p-tolyl-piperidin-1-yl)-methanone]"
79.1,130.8 to 131.5,"CN1CCN(c2cccc(C(=O)N3CCCC[C@@H]3c3ccc(F)cc3)n2)CC1 [Example 67, [(R)-2-(4-Fluoro-phenyl)-piperidin-1-yl]-[6-(4-methyl-piperazin-1-yl)-pyridin-2-yl]-methanone]"
98.2,78 to 80,"Cc1cccc(O[C@H]2CCN(C(=O)c3cccc(N4CCCN(C)CC4)n3)C2)c1 [Example 68, [6-(4-Methyl-[1,4]diazepan-1-yl)-pyridin-2-yl]-((S)-3-m-tolyloxy-pyrrolidin-1-yl)-methanone]"
97.7,90 to 92,"CN1CCCN(c2cccc(C(=O)N3CC[C@H](Oc4ccccc4Cl)C3)n2)CC1 [Example 69, [(S)-3-(2-Chloro-phenoxy)-pyrrolidin-1-yl]-[6-(4-methyl-[1,4]diazepan-1-yl)-pyridin-2-yl]-methanone]"
74.9,77 to 78,"CN1CCN(c2cccc(C(=O)N(C)Cc3cccc(F)c3)n2)CC1 [Example 70, 6-(4-Methyl-piperazin-1-yl)-pyridine-2-carboxylic acid (3-fluoro-benzyl)-methyl-amide]"
87.1,81 to 82,"CN1CCN(c2cccc(C(=O)N(C)Cc3cccc(Cl)c3)n2)CC1 [Example 71, 6-(4-Methyl-piperazin-1-yl)-pyridine-2-carboxylic acid (3-chloro-benzyl)-methyl-amide]"
89.9,75 to 76,"COc1ccccc1CN(C)C(=O)c1cccc(N2CCN(C)CC2)n1 [Example 72, 6-(4-Methyl-piperazin-1-yl)-pyridine-2-carboxylic acid (2-methoxy-benzyl)-methyl-amide]"
91.9,101 to 102,"Cc1cccc(CN(C)C(=O)c2cccc(N3CCN(C)CC3)n2)c1 [Example 73, 6-(4-Methyl-piperazin-1-yl)-pyridine-2-carboxylic acid methyl-(3-methyl-benzyl)-amide]"
